Earlier results in article PMC11187573, “Identification of SARS-CoV-2 Mpro inhibitors through deep reinforcement learning for de novo drug design and computational chemistry approaches” (RSC Medicinal Chemistry, 2024).

tested on: Mpro; conditions: ML dataset, Origin COVID_Moonshot; ref COVID Moonshot; cited from earlier work

Compound | IC50
C[C@H]1C[C@@H](C(=O)Nc2cncc3ccccc23)c2cc(Cl)ccc2O1 [EDJ-MED-e4b030d8-3] | 32.7 µM
Cc1c(Cl)ccc2c1[C@H](C(=O)Nc1cncc3ccccc13)CCO2 [EDJ-MED-e4b030d8-8] | 3.67 µM
Cc1ccncc1N1CCC(c2cccc(Cl)c2)C1=O (stereo not shown) [EDJ-MED-e66f2cc5-1] | 28.8 µM
O=C(c1cc(=O)[nH]c2ccccc12)N1CCN(c2cccc(C(F)(F)F)c2)CC1 [ERI-UCB-a0b0dbcb-4] | 4.72 µM
O=C(c1cc(=O)[nH]c2ccccc12)N1CCN(Cc2cccc(Cl)c2)CC1 [ERI-UCB-a0b0dbcb-12] | 4.57 µM
O=C(c1cc(=O)[nH]c2ccccc12)N1CCN(Cc2cccc(C(F)(F)F)c2)CC1 [ERI-UCB-a0b0dbcb-13] | 34.2 µM
O=C(Cc1cncc2ccccc12)Nc1cc(Cl)cc(OC2CCC(=O)N2)c1 (stereo not shown) [ERI-UCB-ce40166b-6] | 28.9 µM
O=C(Nc1cncc2ccccc12)C1COc2c(Cl)cccc21 (stereo not shown) [FRA-DIA-c7e803f4-1] | 5.06 µM
COc1ccc2c(NC(=O)C3CCOc4ccc(Cl)cc43)noc2c1 (stereo not shown) [JAG-UCB-52b62a6f-10] | 57.5 µM
O=C(Nc1n[nH]c2ccnc(Br)c12)C1CCOc2ccc(Cl)cc21 (stereo not shown) [JAG-UCB-52b62a6f-15] | 86.8 µM
O=C(Nc1n[nH]c2ccncc12)C1CCOc2ccc(Cl)cc21 (stereo not shown) [JAG-UCB-52b62a6f-16] | 70.3 µM
O=C(Nc1cnccc1CO)C1COc2ccc(Cl)cc21 (stereo not shown) [JAG-UCB-a3ef7265-3, Mpro-x10338] | 30.4 µM
O=C(Nc1cnccc1CO)[C@@H]1COc2ccc(Cl)cc21 [JAG-UCB-a3ef7265-3] | 30.4 µM
O=C(Cc1cccc(Cl)c1)Nc1nnn[nH]1 [JAN-GHE-5a013bed-11] | 45.3 µM
O=C(Cc1cncc2ccccc12)N1CCOc2ccc(Cl)cc21 [JOH-UNI-ea1df7a8-1] | 4.85 µM
O=C(Nc1c[nH]c(=O)c2ccccc12)C1CCOc2ccc(Cl)cc21 (stereo not shown) [JOH-UNI-f51e3bbc-1] | 91.6 µM
CC(C)Cn1cc(NC(=O)NCc2ccco2)c2ccccc2c1=O [LON-WEI-4d77710c-44] | 29.6 µM
COC(=O)c1c(C)nn(C(=O)c2cccs2)c1-c1snnc1C [LON-WEI-4d77710c-66] | 3.12 µM
O=C(Nc1ccc(Cl)cc1)[C@@H](c1ccccc1)N1Cc2ccccc2C1=O [LON-WEI-b2874fec-16] | 82.3 µM
O=C(NCc1cccs1)[C@@H](c1ccccc1)N1Cc2ccccc2C1=O [LON-WEI-f8a636e2-1] | 90.7 µM

Compound | IC50
COc1ccccc1OCCC(=O)Nc1cncc2ccccc12 [MAR-UCB-f313ec4d-3] | 90.9 µM
CN(C)C(C(=O)Nc1cncc2ccccc12)c1ccc(Cl)c(Cl)c1 (stereo not shown) [MAT-POS-1f3f1a6f-2] | 4.27 µM
CC(=O)NC(C(=O)Nc1cncc2ccccc12)c1ccc(Cl)c(Cl)c1 (stereo not shown) [MAT-POS-1f3f1a6f-3] | 4.05 µM
O=C(Nc1cncc2ccccc12)C(NCC1CC1)c1ccc(Cl)c(Cl)c1 (stereo not shown) [MAT-POS-1f3f1a6f-4] | 1.75 µM
O=C(Cc1cc(Cl)cc(OC2CC(=O)N2)c1)Nc1cc(=O)[nH]c2ccccc12 (stereo not shown) [MAT-POS-3b92565d-6] | 91.1 µM
CN(C)C(=O)CC1(C(=O)Nc2cncc3ccccc23)CCOc2ccc(Cl)cc21 (stereo not shown) [MAT-POS-5d65ec79-1] | 2.92 µM
OC(Cc1cccc(Cl)c1)Cn1cncn1 (stereo not shown) [MAT-POS-6da3605a-2] | 82.2 µM
O=C(Nc1cncc2ccccc12)C1(CO)CCOc2ccc(Cl)cc21 (stereo not shown) [MAT-POS-9db1e783-2] | 1.09 µM
O=C(Cc1cc(Cl)cc(OC2CCC(=O)N2)c1)Nc1cncc2ccccc12 (stereo not shown) [MAT-POS-9ff17035-1] | 85.9 µM
O=C(Cc1cc(Cl)cc(Oc2cccc(=O)[nH]2)c1)Nc1cncc2ccccc12 [MAT-POS-9ff17035-2] | 1.98 µM
O=C(Cc1cccc(Cl)c1)Nc1cncc2c1CCCN2 [MAT-POS-14ad9fe9-1] | 5.66 µM
O=C(Cc1ccc(Cl)c(Cl)c1)Nc1cncc2ccccc12 [MAT-POS-23a8a11a-1, O=C(Cc1ccc(Cl)c(Cl)c1)Nc1cncc2ccccc12, reference compound] | 0.196 µM
CNC(=O)C1(CC(=O)Nc2cncc3ccccc23)CCOc2ccc(Cl)cc21 (stereo not shown) [MAT-POS-78e1d523-2] | 30.7 µM
CC(C(N)=O)c1cc(Cl)cc(CC(=O)Nc2cncc3ccccc23)c1 (stereo not shown) [MAT-POS-281d2ee9-1] | 2.62 µM
O=C(Cc1cc(Cl)cc(-c2nnn[nH]2)c1)Nc1cncc2ccccc12 [MAT-POS-281d2ee9-3] | 21.4 µM
O=C1CC(C(=O)N2CCN(c3cccc(Cl)c3)CC2)c2ccccc2N1 (stereo not shown) [MAT-POS-450cb4f9-1] | 20.9 µM
Cc1cc(C)c(C)c(S(=O)(=O)N2CCN(C(=O)c3cc(=O)[nH]c4ccccc34)CC2)c1C [MAT-POS-916a2c5a-3] | 6.11 µM
O=C(c1cc(=O)[nH]c2ccccc12)N1CCN(c2ccccc2)CC1 [MAT-POS-916a2c5a-4, MAT-POS-916a2c5a-4, Mpro-x3303] | 19 µM
O=C(c1cc(=O)[nH]c2ccccc12)N1CCN(c2ccccc2)CC1 [MAT-POS-916a2c5a-4] | 19 µM
Cc1ccncc1NC(=O)Cc1cc(Cl)cc(NC2CCC(F)(F)C2O)c1 (stereo not shown) [MAT-POS-044491d2-2] | 24.4 µM

Compound | IC50
Cc1ccncc1NC(=O)Cc1cc(Cl)cc(NC2(C)CCC(F)(F)CC2)c1 [MAT-POS-044491d2-6] | 30.1 µM
O=C1CC(Oc2cc(Cl)cc(N(CCC3CCCCC3)C(=O)Nc3cncc4ccccc34)c2)N1 (stereo not shown) [MAT-POS-53907a1c-3, O=C(Nc1cncc2ccccc12)N(CCC1CCCCC1)c1cc(Cl)cc(OC(C2)NC2=O)c1, reference compound] | 0.84 µM
CNc1ccc(N(C(=O)Cn2nnc3ccccc32)c2cccc(Cl)c2)cc1 [MAT-POS-06036648-5] | 7.95 µM
Cc1ccncc1NC(=O)[C@H]1CCOc2ccc(Cl)cc21 [MAT-POS-b3e365b9-3] | 5.66 µM
CC(C)c1ccncc1NC(=O)Cc1cccc(Cl)c1 [MAT-POS-bb423b95-5] | 22.9 µM
N#Cc1ncn(CC(=O)Nc2ccc(Br)cc2Cl)n1 [MAT-POS-e10a589d-4] | 9.3 µM
CCCCc1nc(-c2nccn2Cc2ccoc2)c[nH]1 [MAT-POS-ea426761-53] | 14.3 µM
O=C1CC(C(=O)Nc2cncc3ccccc23)c2cc(Cl)cc(Cl)c2N1 (stereo not shown) [MAT-POS-f39f51fd-1] | 2.74 µM
Cc1ccncc1NC(=O)Cc1cc(Cl)cc(-c2ccc(C3CC3(F)F)cc2)c1 (stereo not shown) [MAT-POS-f42f3716-1] | 5.64 µM
CCc1cc(F)ccc1-c1cc(Cl)cc(CC(=O)Nc2cnccc2C)c1 [MAT-POS-f42f3716-4] | 28.8 µM
Cc1ccncc1NC(=O)Cc1cc(Cl)cc(-c2ccc(C3(C)CCO3)cc2)c1 (stereo not shown) [MAT-POS-f42f3716-5] | 12.1 µM
Cc1ccncc1NC(=O)Cc1cc(Cl)cc(-c2cnn(C)c2C(F)F)c1 [MAT-POS-f42f3716-7] | 17.6 µM
CC(C)(C)c1ccc(N(C(=O)c2cn[nH]c2)C(C(=O)NCCc2cccc(F)c2)c2cccnc2)cc1 (stereo not shown) [MAT-POS-f2460aef-5] | 5.33 µM
CN1C(=O)CC(O)(C(=O)Nc2cncc3ccccc23)c2cc(Cl)ccc21 (stereo not shown) [MAT-POS-f9802937-2] | 20.7 µM
CN(C)C(=O)C[C@]1(C(=O)Nc2cncc3ccccc23)CCOc2ccc(Cl)cc21 [MAT-POS-f9802937-3] | 1.3 µM
CN(C)C(=O)C[C@@]1(C(=O)Nc2cncc3ccccc23)CCOc2ccc(Cl)cc21 [MAT-POS-f9802937-4] | 20.5 µM
CCOc1c(Cl)cccc1CC(=O)Nc1cncc2ccccc12 [MAT-POS-fce787c2-1] | 6.96 µM
O=C(Cc1cc(Cl)cc(Cl)c1)Nc1cncc2ccccc12 [MAT-POS-fce787c2-2] | 1.37 µM
